Where two headings read alike, the source gives them in different places.
How the values were obtained:
[1] = test system: phospho-ERK1/2 (Thr202/Tyr204) in KYSE-520 cells; test: Phospho-ERK cellular assay (TR-FRET); format: cell-based; conditions: KYSE-520 cells, 2 h at 37° C., read-out: pERK IC50
Description: ERK phosphorylation was detected using the “Advanced phospho-ERK1/2 (Thr202/Tyr204)” TR-FRET kit (Cisbio, Cat #64AERPEG/H), following the manufacturer reagents and instructions.
Briefly, 20.000/well KYSE-520 cells (DSMZ ACC 371) were plated in 6 μL RPMI-1640 (Invitrogen) growth medium, into 384 white low-volume high base TC microplates (Greiner). After an overnight incubation, cells were treated with DMSO serial diluted compounds and incubated for 2 h at 37° C. After incubation, 2 μL/well of 4X Lysis Buffer (Cisbio 64KL1FDF), were added and incubated with cells for 30 min on gentle shaking. Finally, lysates were added with 2 μL/well of Eu cryptate (donor) and D2 (acceptor) conjugated antibodies (as provided by the Cisbio kit #64AERPEG/H) diluted 1:100 in Detection Buffer (as provided by the Cisbio kit #64AERPEG/H). Plates were then sealed and incubated at rt in the dark. After an overnight incubation, the TR-FRET signal was detected on a suitable reader (Envision, PerkinElmer). The lower the TR-FRET signal the higher the higher the SHP2 inhibition in cells.
The activity of each compound dilution was calculated as percentage between vehicle DMSO treated cells and no cells, 0% inhibition and 100% inhibition respectively. The percentage activity is fitted against the compound dilutions with a four-parameter logistic regression. The inflection point (i.e. the concentration at which half-maximal inhibition is achieved) is the IC50.

[2] = biological target: T1, SHP-2 enzyme (Met1-Leu525) (Homo sapiens, UniProt Q06124); test: SHP2 inhibition enzymatic assay (DiFMUP substrate, IRS1 peptide activation); format: biochemical; conditions: 0.5 nM SHP-2, 500 nM IRS1 peptide, 75 μM DiFMUP; read-out: SHP2wt - IC50
T1 construct: synthetized by Origene, Met1-Leu525, cat #TP750155; purchased Origene TP750155
T1 sequence (Q06124 1-525): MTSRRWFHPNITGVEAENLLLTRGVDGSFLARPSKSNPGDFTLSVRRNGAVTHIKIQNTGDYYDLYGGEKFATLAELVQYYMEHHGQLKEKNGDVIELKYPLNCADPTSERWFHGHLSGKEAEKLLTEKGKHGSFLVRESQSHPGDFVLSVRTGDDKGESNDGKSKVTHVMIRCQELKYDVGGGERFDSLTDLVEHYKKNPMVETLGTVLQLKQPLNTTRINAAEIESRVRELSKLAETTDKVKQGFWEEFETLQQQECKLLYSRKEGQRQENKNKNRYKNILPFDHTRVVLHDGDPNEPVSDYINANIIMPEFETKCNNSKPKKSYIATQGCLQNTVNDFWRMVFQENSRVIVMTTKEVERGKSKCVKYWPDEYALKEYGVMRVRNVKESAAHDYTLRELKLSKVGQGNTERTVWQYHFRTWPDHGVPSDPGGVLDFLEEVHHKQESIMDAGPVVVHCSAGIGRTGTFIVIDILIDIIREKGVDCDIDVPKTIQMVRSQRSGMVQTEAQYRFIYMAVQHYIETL
Description: Assay volume of 20 μL/well was assembled in 384 well black polystyrene low-binding microplates (Greiner), using the following buffer: 60 mM HEPES pH 7.2, 75 mM NaCl, 75 mM KCl, 1 mM EDTA pH 8, 0.05% tween-20, 5 mM DTT. The SHP-2 enzyme (synthetized by Origene, Met1-Leu525, cat #TP750155) was used at a final concentration of 0.5 nM.
Briefly, DMSO serially diluted testing compounds were transferred to the bottom of the assay plate. SHP2 was then added together with the IRS1 peptide 30 min post incubation, the DiFMUP substrate was added to the reaction and incubated 30 min at rt. […] The fluorescence was detected by a microplate reader (Envision, PerkinElmer) according to the DiFMUP excitation and emission wavelength. The lower the fluorescence the higher the SHP2 inhibition.
The percentage inhibition is fitted against the compound dilutions with a four-parameter logistic regression. The inflection point (i.e. the concentration at which half-maximal inhibition is achieved) is the IC50.

Structure (SMILES)	IC50 [1]	IC50 [2]	IC50 ([1]; Homo sapiens, KYSE-520, 2 h)
Cc1nc(N2CCC3(CC2)Cn2nccc2[C@H]3N)cc(=O)n1-c1cccc(Cl)c1Cl (single isomer, unassigned) [Example 77a]	0.1 to 0.5 µM	≤ 0.05 µM	–
Cc1nc(N2CCC3(CC2)Cn2nccc2[C@H]3N)cc(=O)n1-c1cccc(Cl)c1Cl (single isomer, unassigned) [Example 77b]	> 0.5 µM	> 0.3 µM	–
Cc1nc(N2CCC3(CC2)Cn2nccc2[C@H]3N)c(Cl)c(=O)n1-c1cccc(Cl)c1Cl (single isomer, unassigned) [Example 78a]	0.1 to 0.5 µM	≤ 0.05 µM	–
Cc1nc(N2CCC3(CC2)Cn2nccc2[C@H]3N)c(Cl)c(=O)n1-c1cccc(Cl)c1Cl (single isomer, unassigned) [Example 78b]	> 0.5 µM	> 0.3 µM	–
N[C@@H]1c2ccnn2CC12CCN(c1nc3nc(Sc4cccnc4C(F)(F)F)cnc3[nH]1)CC2 [Example 1, (S)-1-(5-((2-(trifluoromethyl)pyridin-3-yl)thio)-1H-imidazo[4,5-b]pyrazin-2-yl)-4′H,6′H-spiro[piperidine-4,5′-pyrrolo[1,2-b]pyrazol]-4′-amine]	–	≤ 0.05 µM	> 0.5 µM
Nc1nccc(Sc2cnc3[nH]c(N4CCC5(CC4)Cn4nccc4[C@H]5N)nc3n2)c1Cl [Example 2, (S)-1-(5-((2-amino-3-chloropyridin-4-yl)thio)-1H-imidazo[4,5-b]pyrazin-2-yl)-4′H,6′H-spiro[piperidine-4,5′-pyrrolo[1,2-b]pyrazol]-4′-amine]	–	≤ 0.05 µM	> 0.5 µM
Nc1nc(N2CCC3(CC2)Cn2nccc2[C@H]3N)cnc1Sc1cccnc1C(F)(F)F [Example 3, (S)-1-(6-amino-5-((2-(trifluoromethyl)pyridin-3-yl)thio)pyrazin-2-yl)-4′H,6′H-spiro[piperidine-4,5′-pyrrolo[1,2-b]pyrazol]-4′-amine]	–	≤ 0.05 µM	< 0.1 µM
Nc1nc(N2CCC3(CC2)Cn2nccc2[C@H]3N)cnc1Sc1ccnc(N)c1Cl [Example 4, (S)-1-(6-amino-5-((2-amino-3-chloropyridin-4-yl)thio)pyrazin-2-yl)-4′H,6′H-spiro[piperidine-4,5′-pyrrolo[1,2-b]pyrazol]-4′-amine]	–	≤ 0.05 µM	< 0.1 µM
Cc1cnn2c1[C@@H](N)C1(CCN(c3cnc(Sc4ccnc(N)c4Cl)cn3)CC1)C2 [Example 10, (S)-1-(5-((2-amino-3-chloropyridin-4-yl)thio)pyrazin-2-yl)-3′-methyl-4′H,6′H-spiro[piperidine-4,5′-pyrrolo[1,2-b]pyrazol]-4′-amine]	–	≤ 0.05 µM	< 0.1 µM
COc1cc2n(n1)CC1(CCN(c3cnc(Sc4ccnc(N)c4Cl)cn3)CC1)[C@@H]2N [Example 12, (S)-1-(5-((2-amino-3-chloropyridin-4-yl)thio)pyrazin-2-yl)-2′-methoxy-4′H,6′H-spiro[piperidine-4,5′-pyrrolo[1,2-b]pyrazol]-4′-amine]	–	≤ 0.05 µM	0.1 to 0.5 µM
N[C@@H]1c2ccnn2CC12CCN(c1ncc(Sc3ccnc4c3OC[C@@H]3CCCN43)c3nccn13)CC2 [Example 17, (S)-1-(8-(((S)-6a,7,8,9-tetrahydro-6H-pyrido[3,2-b]pyrrolo[1,2-d][1,4]oxazin-4-yl)thio)imidazo[1,2-c]pyrimidin-5-yl)-4′H,6′H-spiro[piperidine-4,5′-pyrrolo[1,2-b]pyrazol]-4′-amine]	–	≤ 0.05 µM	< 0.1 µM
Nc1nc(N2CCC3(CC2)Cn2nc4c(c2[C@H]3N)CCC4)cnc1Sc1ccnc(N)c1Cl [Example 20, (S)-1′-(6-amino-5-((2-amino-3-chloropyridin-4-yl)thio)pyrazin-2-yl)-1,2,3,8-tetrahydro-6H-spiro[cyclopenta[d]pyrrolo[1,2-b]pyrazole-7,4′-piperidin]-8-amine]	–	≤ 0.05 µM	< 0.1 µM
Nc1nccc(Sc2cnc(N3CCC4(CC3)Cn3nc5c(c3C4O)CCC5)c3cncn23)c1Cl (stereo not shown) [Example 22, 1′-(5-((2-amino-3-chloropyridin-4-yl)thio)imidazo[1,5-a]pyrazin-8-yl)-1,2,3,8-tetrahydro-6H-spiro[cyclopenta[d]pyrrolo[1,2-b]pyrazole-7,4′-piperidin]-8-ol]	–	> 0.3 µM	> 0.5 µM
N[C@@H]1c2ccnn2CC12CCN(c1ncc(Sc3ccnc4c3OC[C@H]3CC5(CC5)CN43)n3cncc13)CC2 [Example 24, (S)-1-(5-(((R)-6a′,7′-dihydro-6′H,9′H-spiro[cyclopropane-1,8′-pyrido[3,2-b]pyrrolo[1,2-d][1,4]oxazin]-4′-yl)thio)imidazo[1,5-a]pyrazin-8-yl)-4′H,6′H-spiro[piperidine-4,5′-pyrrolo[1,2-b]pyrazol]-4′-amine]	–	0.05 to 0.3 µM	> 0.5 µM
N[C@@H]1c2ccnn2CC12CCN(c1cnc(Sc3ccnc4c3OC[C@@H]3CC5(CC5)CN43)cn1)CC2 [Example 25, (S)-1-(5-(((S)-6a′,7′-dihydro-6′H,9′H-spiro[cyclopropane-1,8′-pyrido[3,2-b]pyrrolo[1,2-d][1,4]oxazin]-4′-yl)thio)pyrazin-2-yl)-4′H,6′H-spiro[piperidine-4,5′-pyrrolo[1,2-b]pyrazol]-4′-amine]	–	≤ 0.05 µM	< 0.1 µM
N[C@@H]1c2ccnn2CC12CCN(c1cnc(Sc3ccnc(-n4cccn4)c3Cl)cn1)CC2 [Example 33, (S)-1-(5-((3-chloro-2-(1H-pyrazol-1-yl)pyridin-4-yl)thio)pyrazin-2-yl)-4′H,6′H-spiro[piperidine-4,5′-pyrrolo[1,2-b]pyrazol]-4′-amine]	–	–	< 0.1 µM
Cc1cn2ccc(Sc3cnc(N4CCC5(CC4)Cn4nccc4[C@H]5N)cn3)c(Cl)c2n1 [Example 43, (S)-1-(5-((8-chloro-2-methylimidazo[1,2-a]pyridin-7-yl)thio)pyrazin-2-yl)-4′H,6′H-spiro[piperidine-4,5′-pyrrolo[1,2-b]pyrazol]-4′-amine]	–	–	< 0.1 µM
Nc1nc(N2CCC3(CC2)Cn2nccc2[C@H]3N)cnc1Sc1ccn2ccnc2c1Cl [Example 44, (S)-1-(6-amino-5-((8-chloroimidazo[1,2-a]pyridin-7-yl)thio)pyrazin-2-yl)-4′H,6′H-spiro[piperidine-4,5′-pyrrolo[1,2-b]pyrazol]-4′-amine]	–	–	< 0.1 µM
Cc1nccc(Sc2cnc(N3CCC4(CC3)Cn3cccc3[C@H]4N)cn2)c1F [Example 87, (S)-1-(5-((3-fluoro-2-methylpyridin-4-yl)thio)pyrazin-2-yl)-1′H,3′H-spiro[piperidine-4,2′-pyrrolizin]-1′-amine]	–	≤ 0.05 µM	–
Cc1c(N2CCC3(CC2)Cn2nccc2[C@H]3N)nc(C)n(-c2cccc(Cl)c2Cl)c1=O [Example 88, (S)-6-(4′-amino-4′H,6′H-spiro[piperidine-4,5′-pyrrolo[1,2-b]pyrazol]-1-yl)-3-(2,3-dichlorophenyl)-2,5-dimethylpyrimidin-4(3H)-one]	–	≤ 0.05 µM	–
Cc1nccc(-c2ncc3c(N4CCC5(CC4)Cn4nccc4[C@H]5N)nccn23)c1F [Example 89, (S)-1-(3-(3-fluoro-2-methylpyridin-4-yl)imidazo[1,5-a]pyrazin-8-yl)-4′H,6′H-spiro[piperidine-4,5′-pyrrolo[1,2-b]pyrazol]-4′-amine]	–	0.05 to 0.3 µM	–
N[C@@H]1c2ccnn2CC12CCN(c1ccc(Oc3cccc(Cl)c3Cl)nc1)CC2 [Example 90, (S)-1-(6-(2,3-dichlorophenoxy)pyridin-3-yl)-4′H,6′H-spiro[piperidine-4,5′-pyrrolo[1,2-b]pyrazol]-4′-amine]	–	0.05 to 0.3 µM	–

Reference: patent US20240239799A1, “(S)-1-(5-((PYRIDIN-3-YL)THIO)PYRAZIN-2-YL)-4'H,6'H-SPIRO[PIPERIDINE-4,5'-PYRROLO [1,2-B]PYRAZOL]-4'-AMINE DERIVATIVES AND SIMILAR COMPOUNDS AS SHP2 INHIBITORS FOR THE TREATMENT OF E.G. CANCER” (C.N.C.C.S. S.C.A.R.L. COLLEZIONE NAZIONALE DEI COMPOSTI …, priority 2021, published 2024)
